Assay results: US6737383B1, “Herbicidal oxadiazolidines” (priority 1999, dated 2004)

Columns and labels:
[1] = test system: bedstraw; experiment: Test B pre/postemergence bedstraw; format: in vivo, Galium aparine
How it was run: (§1)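 Test chemicals in a non-phytotoxic solvent mixture with surfactant were sprayed preemergence onto planted seeds and postemergence onto plants 2 to 18 cm tall (1- to 4-leaf stage). After twelve to sixteen days in a greenhouse, injury was visually rated against untreated controls from 0 (no effect) to 10 (complete control).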

[2] = test system: blackgrass; experiment: Test B pre/postemergence blackgrass; format: in vivo, Alopecurus myosuroides
How it was run: as §1

[3] = test system: surinam grass; experiment: Test B pre/postemergence surinam grass; format: in vivo, Brachiaria decumbens
How it was run: as §1

[4] = test system: cocklebur; experiment: Test B pre/postemergence cocklebur; format: in vivo, Xanthium strumarium
How it was run: as §1

[5] = test system: corn; experiment: Test B pre/postemergence corn; format: in vivo, Zea mays
How it was run: as §1

[6] = test system: crabgrass; experiment: Test B pre/postemergence crabgrass; format: in vivo, Digitaria sanguinalis
How it was run: as §1

[7] = test system: giant foxtail; experiment: Test B pre/postemergence giant foxtail; format: in vivo, Setaria faberii
How it was run: as §1

[8] = test system: morningglory; experiment: Test B pre/postemergence morningglory; format: in vivo, Ipomoea hederacea
How it was run: as §1

[9] = test system: pigweed; experiment: Test B pre/postemergence pigweed; format: in vivo, Amaranthus retroflexus; conditions: for Plant response rating, Redroot pigweed: Postemergence; for Plant response rating, Redroot pigweed / Redroot pigweed plant response rating: scale of 0 to 10 where 0 is no effect and 10 is complete control
How it was run: as §1

[10] = test system: rape; experiment: Test B pre/postemergence rape; format: in vivo, Brassica napus
How it was run: as §1

[11] = test system: soybean; experiment: Test B pre/postemergence soybean; format: in vivo, Glycine max; conditions: for Plant response rating, Soybean: Postemergence
How it was run: as §1

[12] = test system: sugar beet; experiment: Test B pre/postemergence sugar beet; format: in vivo, Beta vulgaris; conditions: for Plant response rating, Sugarbeets: Postemergence
How it was run: as §1

[13] = test system: velvetleaf; experiment: Test B pre/postemergence velvetleaf; format: in vivo, Abutilon theophrasti; conditions: for Plant response rating, Velvetleaf: Postemergence
How it was run: as §1

[14] = test system: wheat; experiment: Test B pre/postemergence wheat; format: in vivo, Triticum aestivum; conditions: for Plant response rating, Wheat: Postemergence
How it was run: as §1

[15] = test system: wild oat; experiment: Test B pre/postemergence wild oat; format: in vivo, Avena fatua; conditions: for Plant response rating, Wild oats: Postemergence
How it was run: as §1

[16] = test system: purple nutsedge; experiment: Test B pre/postemergence purple nutsedge; format: in vivo, Cyperus rotundus
How it was run: as §1

[17] = Postemergence, Rate 62 g/ha, scale of 0 to 10, 0 is no effect, 10 is complete control
[18] = Postemergence, Rate 125 g/ha, scale of 0 to 10 where 0 is no effect and 10 is complete control
[19] = Postemergence, Rate 500 g/ha, scale of 0 to 10 where 0 is no effect and 10 is complete control
[20] = Preemergence, Rate 62 g/ha, scale 0 to 10 (0 no effect, 10 complete control)
[21] = Preemergence, Rate 125 g/ha, scale of 0 to 10 where 0 is no effect and 10 is complete control
[22] = Preemergence, Rate 500 g/ha, scale of 0 to 10 where 0 is no effect and 10 is complete control
[23] = Rate 250 g/ha, Postemergence, scale of 0 to 10 where 0 is no effect and 10 is complete control
[24] = Rate 125 g/ha, scale of 0 to 10 where 0 is no effect and 10 is complete control
[25] = Rate 500 g/ha, scale of 0 to 10 where 0 is no effect and 10 is complete control
[26] = Rate 250 g/ha, scale of 0 to 10 where 0 is no effect and 10 is complete control

`CC(C)N(C(=O)n1oc(=O)n(CCCCF)c1=O)c1ccccc1` [Compound 581] was tested, and the “Bedstraw plant response rating” value [1, 17] was 0, the “Plant response rating, Bedstraw” value [1, 18] was 8 and the “Plant response rating, Bedstraw” value [1, 19] was 9. The “Bedstraw plant response rating” value [1, 20] was 8, the “Bedstraw plant response rating” value [1, 21] was 9 and the “Bedstraw plant response rating (0 to 10 scale)” value ([1]; Preemergence, Rate 250 g/ha) was 7. The “Bedstraw plant response rating” value [1, 22] was 9, the “Blackgrass plant response rating” value [2, 17] was 4 and the “Plant response rating, Blackgrass” value [2, 18] was 4. The “Plant response rating, Blackgrass” value [2, 19] was 4, the “Blackgrass plant response rating” value [2, 20] was 0 and the “Blackgrass plant response rating” value [2, 21] was 0. For the same molecule, the “Blackgrass plant response rating (0 to 10 scale)” value ([2]; Preemergence, Rate 250 g/ha) was 0, the “Blackgrass plant response rating” value [2, 22] was 7 and the “Plant response rating, Blackgrass” value [2, 23] was 4. For the same molecule, the “B. signalgrass plant response rating” value [3, 17] was 5, the “Plant response rating, B. signalgrass” value [3, 18] was 5 and the “Plant response rating, B. signalgrass” value [3, 19] was 8. For the same molecule, the “B. signalgrass plant response rating” value [3, 20] was 0, the “B. signalgrass plant response rating” value [3, 21] was 0 and the “B. signalgrass plant response rating (0 to 10 scale, 0 is no effect, 10 is complete control)” value ([3]; Preemergence, Rate 250 g/ha) was 2. The “B. signalgrass plant response rating” value [3, 22] was 9, the “Plant response rating, B. signalgrass” value [3, 23] was 7 and the “Cocklebur plant response rating” value [4, 17] was 2. For the same molecule, the “Plant response rating, Cocklebur” value [4, 19] was 3, the “Cocklebur plant response rating” value [4, 20] was 0 and the “Cocklebur plant response rating” value [4, 21] was 0. For the same molecule, the “Cocklebur plant response rating (0 to 10 scale)” value ([4]; Preemergence, Rate 250 g/ha) was 0, the “Cocklebur plant response rating” value [4, 22] was 0 and the “Plant response rating, Cocklebur” value [4, 23] was 3. The “Corn plant response rating” value [5, 17] was 2, the “Plant response rating, Corn” value [5, 18] was 4 and the “Plant response rating, Corn” value [5, 19] was 6. The “Corn plant response rating” value [5, 20] was 0, the “Corn plant response rating” value [5, 21] was 2 and the “Corn plant response rating (0 to 10 scale)” value ([5]; Preemergence, Rate 250 g/ha) was 7. For the same molecule, the “Corn plant response rating” value [5, 22] was 9, the “Plant response rating, Corn” value [5, 23] was 5 and the “Crabgrass plant response rating” value [6, 17] was 3. For the same molecule, the “Plant response rating, Crabgrass” value [6, 18] was 7, the “Plant response rating, Crabgrass” value [6, 19] was 9 and the “Crabgrass plant response rating” value [6, 20] was 4. The “Crabgrass plant response rating” value [6, 21] was 9, the “Crabgrass plant response rating (0 to 10 scale)” value ([6]; Preemergence, Rate 250 g/ha) was 8 and the “Crabgrass plant response rating” value [6, 22] was 9. The “Plant response rating, Crabgrass” value [6, 23] was 7, the “Giant foxtail plant response rating” value [7, 17] was 7 and the “Plant response rating, Giant foxtail” value [7, 18] was 8. For the same molecule, the “Plant response rating, Giant foxtail” value [7, 19] was 9, the “Giant foxtail plant response rating” value [7, 20] was 4 and the “Giant foxtail plant response rating” value [7, 21] was 10. The “Giant foxtail plant response rating (0 to 10 scale)” value ([7]; Preemergence, Rate 250 g/ha) was 9, the “Giant foxtail plant response rating” value [7, 22] was 10 and the “Plant response rating, Giant foxtail” value [7, 23] was 8. For the same molecule, the “Morningglory plant response rating” value [8, 17] was 4, the “Plant response rating, Morningglory” value [8, 18] was 8 and the “Plant response rating, Morningglory” value [8, 19] was 10. For the same molecule, the “Morningglory plant response rating” value [8, 20] was 0, the “Morningglory plant response rating” value [8, 21] was 2 and the “Morningglory plant response rating (0 to 10 scale)” value ([8]; Preemergence, Rate 250 g/ha) was 4. The “Morningglory plant response rating” value [8, 22] was 6, the “Plant response rating, Morningglory” value [8, 23] was 7 and the “Plant response rating, Redroot pigweed” value ([9]; Rate 125 g/ha) was 8. The “Plant response rating, Redroot pigweed” value ([9]; Rate 500 g/ha) was 9, the “Redroot pigweed plant response rating” value ([9]; Preemergence, Rate 125 g/ha) was 5 and the “Redroot pigweed plant response rating (0 to 10 scale)” value ([9]; Preemergence, Rate 250 g/ha) was 9. The “Redroot pigweed plant response rating” value ([9]; Preemergence, Rate 500 g/ha) was 10, the “Plant response rating, Redroot pigweed” value ([9]; Rate 250 g/ha) was 8 and the “Rape plant response rating” value [10, 17] was 0. For the same molecule, the “Plant response rating, Rape” value [10, 18] was 7, the “Plant response rating, Rape” value [10, 19] was 7 and the “Rape plant response rating” value [10, 20] was 0. For the same molecule, the “Rape plant response rating” value [10, 21] was 0, the “Rape plant response rating (0 to 10 scale)” value ([10]; Preemergence, Rate 250 g/ha) was 2 and the “Rape plant response rating” value [10, 22] was 7. The “Plant response rating, Rape” value [10, 23] was 7, the “Plant response rating, Soybean” value [11, 24] was 4 and the “Plant response rating, Soybean” value [11, 25] was 5. For the same molecule, the “Soybean plant response rating” value [11, 20] was 0, the “Soybean plant response rating” value [11, 21] was 0 and the “Soybean plant response rating (0 to 10 scale)” value ([11]; Preemergence, Rate 250 g/ha) was 5. The “Soybean plant response rating” value [11, 22] was 7, the “Plant response rating, Soybean” value [11, 26] was 4 and the “Plant response rating, Sugarbeets” value [12, 24] was 5. For the same molecule, the “Plant response rating, Sugarbeets” value [12, 25] was 8, the “Sugarbeets plant response rating” value [12, 20] was 0 and the “Sugarbeets plant response rating” value [12, 21] was 0. For the same molecule, the “Sugarbeets plant response rating (0 to 10 scale)” value ([12]; Preemergence, Rate 250 g/ha) was 0, the “Sugarbeets plant response rating” value [12, 22] was 9 and the “Plant response rating, Sugarbeets” value [12, 26] was 7. For the same molecule, the “Plant response rating, Velvetleaf” value [13, 24] was 4, the “Plant response rating, Velvetleaf” value [13, 25] was 6 and the “Velvetleaf plant response rating” value [13, 20] was 5. The “Velvetleaf plant response rating” value [13, 21] was 5, the “Velvetleaf plant response rating (0 to 10 scale)” value ([13]; Preemergence, Rate 250 g/ha) was 5 and the “Velvetleaf plant response rating” value [13, 22] was 10. The “Plant response rating, Velvetleaf” value [13, 26] was 6, the “Plant response rating, Wheat” value [14, 24] was 4 and the “Plant response rating, Wheat” value [14, 25] was 4. For the same molecule, the “Wheat plant response rating” value [14, 20] was 0, the “Wheat plant response rating” value [14, 21] was 0 and the “Wheat plant response rating (0 to 10 scale)” value ([14]; Preemergence, Rate 250 g/ha) was 2. The “Wheat plant response rating” value [14, 22] was 5, the “Plant response rating, Wheat” value [14, 26] was 4 and the “Plant response rating, Wild oats” value [15, 24] was 5. The “Plant response rating, Wild oats” value [15, 25] was 5, the “Wild oats plant response rating” value [15, 20] was 0 and the “Wild oats plant response rating” value [15, 21] was 0. For the same molecule, the “Wild oats plant response rating (0 to 10 scale)” value ([15]; Preemergence, Rate 250 g/ha) was 0, the “Wild oats plant response rating” value [15, 22] was 8 and the “Plant response rating, Wild oats” value [15, 26] was 5. For the same molecule, the “Nutsedge plant response rating” value [16, 17] was 0, the “Nutsedge plant response rating” value [16, 20] was 0 and the “Nutsedge plant response rating” value [16, 21] was 0. For the same molecule, the “Nutsedge plant response rating (0 to 10 scale)” value ([16]; Preemergence, Rate 250 g/ha) was 4 and the “Nutsedge plant response rating” value [16, 22] was 8.
